According to EP1903056A2, “HLA-A1, -A2 -A3, -A24, -B7, and -B44 tumor associated antigen peptides and compositions” (priority 2002, dated 2004):
Values belong to the compound of their own block, whether it stands above or below them.

Legend:
cervical cancer patients [1] = settings: two weeks after vaccination; PBMC stimulated in vitro with 5 µg/ml PADRE peptide; proliferation index > 5; cited from earlier work
melanoma patients = melanoma patients vaccinated with peptide-pulsed DC or the peptide alone; cited from earlier work
cervical cancer patients [2] = settings: cited from earlier work
B*5401 = B*5401 (Homo sapiens, UniProt P01889, A329T/C349S/D138N/D201E/E176V/E187T/E204Q/E69G/I76V/K202T/L119W/R155S/R180L/S121T/S35A/S48A/V127L/V306I/V36M/Y140L); assay: Class I peptide-binding assay, B*5401; settings: Table 17a
B*3501 = B*3501 (Homo sapiens, UniProt P01889, A329T/A93T/A95T/C349S/D201E/D98Y/E176V/E187L/E204Q/E69T/I218V/K202T/L119I/Q94N/R155S/R180L/S121R/S35A/S48A/T118I/V127L/V306I/V36M/Y140S/Y91F); assay: Class I peptide-binding assay, B*3501
HLA-A*0101 = HLA-A*0101 (Homo sapiens, UniProt P04439, A114D/A174V/A182V/D101N/D185E/E176A/E190D/L180R/Q94H/R68K/S129P/T187R/V100A/V91M/W191G); assay: Class I peptide-binding assay, A*0101; settings: Table 18a, CEA-derived A1 binders
HLA-A*2402 = HLA-A*2402 (Homo sapiens, UniProt P04439, D101N/D140Y/D185E/E176V/E190D/F33S/G103R/G107R/I119L/I121M/I306V/K335N/L105A/L180Q/L300P/N151K/N90K/Q86E/Q94H/R106L/R138H/R89G/T104I/T345S/V100E/W191G/Y123F); assay: Class I peptide-binding assay, A*2402; settings: Table 19a, CEA-derived A24 binders

Structure (SMILES): CC(C)C[C@H](NC(=O)[C@@H](NC(=O)[C@H](Cc1c[nH]c2ccccc12)NC(=O)[C@H](C)NC(=O)[C@H](C)NC(=O)[C@@H](NC(=O)[C@H](CC1CCCCC1)NC(=O)[C@H](CCCCN)NC(=O)[C@@H](C)N)C(C)C)[C@@H](C)O)C(=O)N[C@@H](CCCCN)C(=O)N[C@@H](C)C(=O)N[C@@H](C)C(=O)N[C@H](C)C(N)=O [aKXVAAWTLKAAa-NH2]
patients displaying PADRE-specific proliferation (cervical cancer patients [1]): 4/12

Structure (SMILES): CC[C@H](C)[C@H](NC(=O)[C@@H]1CCCN1C(=O)[C@H](CC(=O)O)NC(=O)[C@@H](NC(=O)[C@@H](N)CCC(=O)O)C(C)C)C(=O)NCC(=O)N[C@@H](Cc1c[nH]cn1)C(=O)N[C@@H](CC(C)C)C(=O)N[C@@H](Cc1ccc(O)cc1)C(=O)O [MAGE3.168]
tumor regression in vaccinated patients (melanoma patients): tumor regression was observed

Structure (SMILES): CC(C)C[C@H](NC(=O)[C@@H](NC(=O)[C@H](Cc1c[nH]c2ccccc12)NC(=O)[C@H](C)NC(=O)[C@H](C)NC(=O)[C@@H](NC(=O)[C@H](CC1CCCCC1)NC(=O)[C@H](CCCCN)NC(=O)[C@@H](C)N)C(C)C)[C@@H](C)O)C(=O)N[C@@H](CCCCN)C(=O)N[C@@H](C)C(=O)N[C@@H](C)C(=O)N[C@H](C)C(N)=O [PADRE, aKXVAAWTLKAAa-NH2]
responding patients (cervical cancer patients [2]; 95% interval 10-65%): 33%
safety in trial (cervical cancer patients [2]; patients with recurrent or residual cervical carcinoma): favorable safety profile

IC50 (B*5401): 0.032 µM
IC50 (B*3501; Table 17a): 10 µM
Structure (SMILES): CC[C@H](C)[C@H](N)C(=O)N1CCC[C@H]1C(=O)N[C@@H](Cc1c[nH]c2ccccc12)C(=O)N[C@@H](CCC(N)=O)C(=O)N[C@@H](CCCNC(=N)N)C(=O)N[C@@H](CC(C)C)C(=O)N[C@@H](CC(C)C)C(=O)N[C@@H](CC(C)C)C(=O)N[C@H](C(=O)N[C@@H](C)C(=O)O)[C@@H](C)O [CEA.13]

IC50 (B*3501; Table 17a): 10 µM
Structure (SMILES): CC[C@H](C)[C@H](N)C(=O)N1CCC[C@H]1C(=O)N[C@@H](Cc1c[nH]c2ccccc12)C(=O)N[C@@H](CCC(N)=O)C(=O)N[C@@H](CCCNC(=N)N)C(=O)N[C@@H](CC(C)C)C(=O)N[C@@H](CC(C)C)C(=O)N[C@@H](CC(C)C)C(=O)N[C@H](C(=O)N[C@H](C(=O)O)[C@@H](C)CC)[C@@H](C)O [CEA.13I10]

IC50 (HLA-A*0101): 0.641 µM
Structure (SMILES): CC[C@H](C)[C@H](N)C(=O)N[C@H](C(=O)N[C@@H](CCC(=O)O)C(=O)N[C@@H](CCCCN)C(=O)N[C@@H](CC(N)=O)C(=O)N[C@@H](CO)C(=O)NCC(=O)N[C@@H](CC(C)C)C(=O)N[C@@H](Cc1ccc(O)cc1)C(=O)O)[C@@H](C)O [compound 179]

IC50 (B*3501; Table 17a): 10 µM
Structure (SMILES): CC[C@H](C)[C@H](NC(=O)[C@H](CO)NC(=O)[C@H](Cc1ccc(O)cc1)NC(=O)CNC(=O)[C@H](Cc1ccccc1)NC(=O)[C@H](CC(C)C)NC(=O)[C@H](Cc1c[nH]cn1)NC(=O)[C@H](CCC(N)=O)NC(=O)[C@@H]1CCCN1C(=O)[C@@H](N)CC(C)C)C(=O)O [CEA.58I10]

IC50 (B*3501; Table 17b): 1 µM
Structure (SMILES): CC[C@H](C)[C@H](NC(=O)[C@@H]1CCCN1C(=O)[C@H](CC(C)C)NC(=O)[C@@H]1CCCN1C(=O)CNC(=O)[C@H](CCC(=O)O)NC(=O)[C@H](CCCNC(=N)N)NC(=O)[C@@H]1CCCN1C(=O)[C@H](CO)NC(=O)[C@@H]1CCCN1C(=O)[C@@H]1CCCN1)C(=O)O [Her2/neu.1149.I11]

IC50 (HLA-A*2402): 1.46 µM
Structure (SMILES): CC(C)C[C@H](NC(=O)[C@H](CO)NC(=O)[C@H](CCC(N)=O)NC(=O)CNC(=O)[C@H](CC(N)=O)NC(=O)[C@@H](NC(=O)[C@H](Cc1c[nH]c2ccccc12)NC(=O)[C@H](Cc1c[nH]c2ccccc12)NC(=O)[C@@H](N)CC(C)C)C(C)C)C(=O)O [compound 283]
